Data published in patent US20130210881A1, “ANTIMICROBIAL COMPOSITION” (Agency for Science ,Technology and Research, priority 2010, published 2013).

Assays:
Format in all cases: cell-based
[1] = test system: Bacillus subtilis (ATCC 23857, gram-positive); experiment: Antimicrobial analysis, MIC, B. subtilis; details: ATCC23857, 37° C., 24 hours, concentration necessary to inhibit complete cell growth
Method: (§1) All bacteria and yeast originated from a −80° C. frozen stock. Bacteria were grown overnight at 37° C. in Tryptic Soy broth (TSB) and yeast was grown overnight at 22° C. in Yeast Mold (YM) broth. Sub-samples of these cultures were grown for three hours further and diluted to an OD600 of 0.1. The bacteria solutions (about 2˜5×10^8 cells/mL) were then added to the 96-well plate and were incubated at 37° C. for 24 hours. All experiments were run in triplicate and the reported minimum inhibitory concentration (MIC) is the concentration necessary to inhibit complete cell growth.

[2] = test system: Candida albicans (ATCC 10231, yeast); experiment: Antimicrobial analysis, MIC, C. albicans; details: ATCC10231, concentration necessary to inhibit complete cell growth
Method: as §1

[3] = test system: Escherichia coli (ATCC 25922, gram-negative); experiment: Antimicrobial analysis, MIC, E. coli; details: ATCC25922, 37° C., 24 hours, concentration necessary to inhibit complete cell growth
Method: as §1

Measured: MIC

c1ccc(C[n+]2ccn(Cc3ccc(Cn4cc[n+](Cc5ccccc5)c4)cc3)c2)cc1 [Sample 3a]
> 250 µg/mL: [1] | [2] | [3]

c1ccc(C[n+]2ccn(Cc3ccccc3Cn3cc[n+](Cc4ccccc4)c3)c2)cc1 [Sample 3b]
> 250 µg/mL: [1] | [2] | [3]

c1ccc(C[n+]2ccn(Cc3ccc(Cn4cc[n+](Cc5ccc(Cn6cc[n+](Cc7ccccc7)c6)cc5)c4)cc3)c2)cc1 [Sample 3c]
> 250 µg/mL: [1] | [2] | [3]

C(=C/CCn1cc[n+](Cc2ccccc2)c1)/CCn1cc[n+](CC/C=C\CCn2cc[n+](Cc3ccccc3)c2)c1 [Sample 3d]
> 250 µg/mL: [1] | [2] | [3]

C(=C/CCn1cc[n+](Cc2ccc(Cn3cc[n+](CC/C=C\CCn4cc[n+](Cc5ccccc5)c4)c3)cc2)c1)/CCn1cc[n+](Cc2ccccc2)c1 [Sample 3f]
> 250 µg/mL: [1] | [2] | [3]
